The test system of series [1] is Escherichia coli ATCC 25922. Type of series: cell-based.
Procedure: The antimicrobial activity of the three designed peptides was tested against Escherichia coli (ATCC® 25922™), Pseudomonas aeruginosa (ATCC® 27853™), Pseudomonas aeruginosa PAO1 wild type strain, Bacillus subtilis subsp. spizizenii (ATCC® 6633™), Staphylococcus aureus (ATCC® 6538 P™) and Staphylococcus aureus MRSA WKZ-2 (kindly provided by collection of Prof. Edwin Veldhuizen, University of Utrecht, Holland). MIC assays were performed by broth microdilution method as described elsewhere[34] using Nutrient Broth (Becton Dickinson Difco, Franklin Lakes, NJ) as bacterial growth medium. […] Experiments were performed three times for each peptide.
Following the incubation time, MIC assays were carried out as previously described. […] Experiments were performed five times for each peptide.
The test system of series [2] is Escherichia coli (ATCC 25922). In kind it is cell-based.
Procedure: (§2) MIC assays were performed by broth microdilution method as described elsewhere[34] using Nutrient Broth (Becton Dickinson Difco, Franklin Lakes, NJ) as bacterial growth medium. […] Experiments were performed three times for each peptide.
Series [3] relates to Pseudomonas aeruginosa (ATCC 27853). In kind it is cell-based.
Procedure: as §2
Series [4] concerns Pseudomonas aeruginosa PAO1 wild type strain. Type of series: cell-based.
Procedure: as §2
In series [5] the test system is Bacillus subtilis subsp. spizizenii (ATCC 6633). In kind it is cell-based.
Procedure: as §2
Series [6] concerns Staphylococcus aureus MRSA WKZ-2. In kind it is cell-based.
Procedure: as §2
Series [7] concerns Staphylococcus aureus (ATCC 6538P). In kind it is cell-based.
The subject of series [8] is human intestinal CaCo-2 cells. Type of series: cell-based. On the procedure:
(§1) Cytotoxic effects of the three peptides on human epithelial colorectal adenocarcinoma cells (CaCo-2) and on aneuploid immortal keratinocyte cells line from adult human skin (HaCaT) were assessed by performing the (3-(4,5-dimethylthiazol-2-yl)−2,5 diphenyltetrazolium bromide (MTT) reduction inhibition assay. Both human cell lines were obtained from the American Type Culture Collection (ATCC, Manassas, VA, USA) and grown at 37 °C in a humidified incubator containing 5% CO2 in Dulbecco’s modified Eagle’s medium (DMEM) supplemented with 10% fetal bovine serum, 4 mM glutamine, 400 units/mL penicillin, and 0.1 mg mL^−1 streptomycin. Cells were plated on 96-well plates at a density of 5 × 10^3 per well in 100 μL of medium and incubated at 37 °C with 5% CO2. Medium was then replaced with 100 μl of fresh media containing peptide solution to a final concentration ranging from 0.1–10 μM/well. After a time of incubation ranging from 18 to 48 hours at 37 °C, the peptide-containing medium was removed, and 10 μL of a 5 mg mL^−1 MTT stock solution in DMEM without red phenol, corresponding to a final concentration of […] in DMEM (final volume of 100 μL), was added to the cells. […] Cell survival was reported as the relative absorbance, with respect to control, of blue formazan measured at 570 nm with a Synergy Multi Plate Reader. […]

The subject of series [9] is human keratinocytes cells HaCaT. Type of series: cell-based. On the procedure: as §1
Series [10] in a line: Relative hydrophobicity by retention in reverse phase HPLC. Type of series: physicochemical. To be noted: chromatographic, Fig. S4 and Table S1 (numbers not available here). On the procedure:
Crude peptides were purified by preparative HPLC on a Shimadzu LC-8A system. A Vydac C18 column (22 mm × 250 mm; 10 μm) was used, eluted with a H2O 0.1% TFA, (eluent A) and CH3CN 0.1% TFA (eluent B) linear gradient at 22 mL min^−1 flow rate. Fractions were separated according to their absorbance at 210 nm by an online UV detector (Shimadzu). Peptide fractions were then checked for their purity by analytical LCMS. Peptide identities were confirmed by LCMS analysis on a Shimadzu 20ADxr coupled with a Shimadzu ESI-IT-TOF mass detector (probe voltage 4.5 kV; probe temperature 25 °C; desolvation temperature 250 °C; detector voltage 1.5 kV). All analyses were performed with a Vydac C18 column (2.1 mm × 100 mm; 5 μm), eluted with a H2O 0.05% TFA, (eluent A) and CH3CN 0.05% TFA (eluent B) linear gradient, from 5% to 95% (solvent B), over 30 minutes, at 0.2 ml min^−1 flow rate. Pure fractions were pooled and lyophilized as TFA salts (purity >95%). Peptide samples for biological assays were further subjected to counter ion exchange on a DEAE-Sephadex weak […] resin. Briefly, peptide solutions in water were loaded on a 0.5 mL syringe column, and then eluted by decreasing the pH with an acetate buffer at pH 4.3 to obtain the desired peptide acetate salt. Further, the relative hydrophobicities of P9 peptides were evaluated through their retention in reverse phase HPLC.

The text below walks through data of publication PMC5995839, “Exploring the role of unnatural amino acids in antimicrobial peptides” (Scientific Reports, 2018).

Values after ≈ are worked out from the molar mass of the structure shown. Square brackets hold non-standard residues; d marks the D form. Peptide text beside a SMILES is read from it. * marks the point of attachment. 2Nal = N[C@@H](Cc1ccc2ccccc2c1)C(=O)O; Ahx = NCCCCCC(=O)O; StBu = CC(C)(C)S*; tBu = CC(C)(C)*

Turning to `CC(C)C[C@H](NC(=O)[C@H](CCCNC(=N)N)NC(=O)[C@@H](NC(=O)[C@H](CCCNC(=N)N)NC(=O)[C@@H](N)CC(C)C)C(C)C)C(=O)N[C@@H](C)C(=O)N[C@@H](CO)C(=O)N[C@@H](Cc1c[nH]cn1)C(=O)N[C@@H](CC(C)C)C(=O)N[C@@H](CCCNC(=N)N)C(=O)N[C@@H](CCCCN)C(=O)N[C@@H](CC(C)C)C(=O)N[C@@H](CCCNC(=N)N)C(=O)N[C@@H](CCCCN)C(=O)N[C@@H](CCCNC(=N)N)C(=O)N[C@@H](CC(C)C)C(=O)N[C@@H](CC(C)C)C(=O)N[C@@H](CCCNC(=N)N)C(=O)O` [ApoE(133–150), reference compound], in series [1], the “Fold change (1 h)” value is given as over 16 and the “Fold change (16 h)” value is reported as over 16. Moreover, the “MIC, Preincubation for 1 h in 10% serum” value in [1] (E. coli ATCC 25922, peptide incubated 1 h in 10% fetal bovine serum at 37 °C before MIC assay, five replicates) was “completely lost antimicrobial activity”.

Consider `CC(C)(C)SC[C@H](NC(=O)CCCCCN)C(=O)N[C@@H](CCCCN)C(=O)N[C@@H](Cc1ccc2ccccc2c1)C(=O)N[C@@H](Cc1ccc2ccccc2c1)C(=O)N[C@@H](CCCCN)C(=O)N[C@@H](CCCCN)C(=O)N[C@@H](CSC(C)(C)C)C(=O)NCCCCCC(N)=O` [P9Nal(SR)] (H-[Ahx]C(tBu)K[2Nal][2Nal]KKC(tBu)[Ahx]-NH2), for which the “MIC, E. coli ATCC25922” value in series [2] worked out at 10 µM (≈ 13.4 µg/mL). Moreover, the “MIC, P. aeruginosa ATCC27853” value in [3] worked out at 1.25 µM (≈ 1.68 µg/mL). The “MIC, PAO1 Wt” value in series [4] is reported as 10 µM (≈ 13.4 µg/mL). For the same compound, in series [5], the “MIC, B. spizizenii ATCC6633” value came to 40 µM (≈ 53.6 µg/mL). The “MIC, S. aureus MRSA” value in series [6] is on record as 40 µM (≈ 53.6 µg/mL). Further, the “MIC, S. aureus ATCC6538P” value in series [7] was found to be 40 µM (≈ 53.6 µg/mL). Moreover, in [1], the “Fold change (1 h)” value came out at 1 and the “Fold change (16 h)” value is listed as over 8. Moreover, the “toxic effect on CaCo2 cells at low doses, compared with HaCaT” value in series [8] is on record as “slightly higher”. The “toxic effects on HaCaT cells at low doses” value in series [9] is given as “no evident toxic effects”.

Turning to `CC(C)(C)SSC[C@H](NC(=O)CCCCCN)C(=O)N[C@@H](CCCCN)C(=O)N[C@@H](Cc1c[nH]c2ccccc12)C(=O)N[C@@H](Cc1c[nH]c2ccccc12)C(=O)N[C@@H](CCCCN)C(=O)N[C@@H](CCCCN)C(=O)N[C@@H](CSSC(C)(C)C)C(=O)NCCCCCC(N)=O` [P9Trp(SS)] (H-[Ahx]C(StBu)KWWKKC(StBu)[Ahx]-NH2), the “MIC, E. coli ATCC25922” value in series [2] amounted to 10 µM (≈ 13.8 µg/mL). Also, in series [3], the “MIC, P. aeruginosa ATCC27853” value was 2.5 µM (≈ 3.46 µg/mL). Besides, in series [4], the “MIC, PAO1 Wt” value amounted to 10 µM (≈ 13.8 µg/mL). Moreover, the “MIC, B. spizizenii ATCC6633” value in series [5] is recorded as 40 µM (≈ 55.3 µg/mL). Further, the “MIC, S. aureus MRSA” value in series [6] amounted to 40 µM (≈ 55.3 µg/mL). Moreover, the “MIC, S. aureus ATCC6538P” value in [7] is listed as 20 µM (≈ 27.7 µg/mL). For the same compound, the “Fold change (1 h)” value in series [1] is given as 1.

Consider `CC(C)(C)SSC[C@H](NC(=O)CCCCCN)C(=O)N[C@@H](CCCCN)C(=O)N[C@@H](Cc1ccc2ccccc2c1)C(=O)N[C@@H](Cc1ccc2ccccc2c1)C(=O)N[C@@H](CCCCN)C(=O)N[C@@H](CCCCN)C(=O)N[C@@H](CSSC(C)(C)C)C(=O)NCCCCCC(N)=O` [P9Nal(SS)] (H-[Ahx]C(StBu)K[2Nal][2Nal]KKC(StBu)[Ahx]-NH2), for which the “MIC, E. coli ATCC25922” value in series [2] turned out to be 10 µM (≈ 14 µg/mL). In addition, the “MIC, P. aeruginosa ATCC27853” value in [3] was 2.5 µM (≈ 3.51 µg/mL). Moreover, the “MIC, PAO1 Wt” value in [4] is listed as 10 µM (≈ 14 µg/mL). Further, the “MIC, B. spizizenii ATCC6633” value in series [5] worked out at 10 µM (≈ 14 µg/mL). For the same compound, the “MIC, S. aureus MRSA” value in [6] is 20 µM (≈ 28.1 µg/mL). Besides, the “MIC, S. aureus ATCC6538P” value in [7] is given as 10 µM (≈ 14 µg/mL). For the same compound, in series [1], the “Fold change (1 h)” value came out at 1. For the same compound, the “relative hydrophobicity (retention in reverse phase HPLC)” value in series [10] is on record as “most hydrophobic”.

As for `CC(=O)N[C@@H](CC(C)C)C(=O)N[C@@H](CCCNC(=N)N)C(=O)N[C@H](C(=O)N[C@@H](CCCNC(=N)N)C(=O)N[C@@H](CC(C)C)C(=O)N[C@@H](C)C(=O)N[C@@H](CO)C(=O)N[C@@H](Cc1c[nH]cn1)C(=O)N[C@@H](CC(C)C)C(=O)N[C@@H](CCCNC(=N)N)C(=O)N[C@@H](CCCCN)C(=O)N[C@@H](CC(C)C)C(=O)N[C@@H](CCCNC(=N)N)C(=O)N[C@@H](CCCCN)C(=O)N[C@@H](CCCNC(=N)N)C(=O)N[C@@H](CC(C)C)C(=O)N[C@@H](CC(C)C)C(=O)N[C@@H](CCCNC(=N)N)C(N)=O)C(C)C` [Ac-ApoE(133–150)-NH2, reference compound], the “Fold change (16 h)” value in series [1] is reported as over 16.
